Results on 22 molecules are retold here after US5827895A, “Hexahydrolupulones useful as anticancer agents” (Regents of the University of Minnesota, priority 1996, dated 1998).

The test system of data set [1] is VRE (Vancomycin Resistant Enterococcus faeclum).
Method: (§1) HHC was also tested for effectiveness against various bacterial isolates obtained from human subjects.
Data set [2] has as its system MRSA (Methicillin Resistant Staphylococcus aureus). Nature of the data set: Patient isolates evaluated for antibiotic sensitivity, MRSA.
Method: as §1
Data set [3] concerns OxaRSA (Oxacillin Resistant Staphylococcus aureus). Nature of the data set: Patient isolates evaluated for antibiotic sensitivity, OxaRSA. The following applies: patient G, OxaRSA.
Method: as §1
Data set [4] concerns adriamycin- and vinblastin-resistant CEM cells. The following applies: Mannering et al.; cited from earlier work.
For the next data set, the system named is CEM leukemia cells. The following applies: Mannering et al.; cited from earlier work.
A further data set deals with Hela cells. The following applies: Mannering et al.; cited from earlier work.
Another data set deals with TB. The following applies: currently utilized anti-TB drugs, for comparison; cited from earlier work.
The next data set deals with Lactobacilli. The following applies: U.S. Pat. No. 5,082,975; cited from earlier work.
For data set [5] the following is noted: Carson, 1951; cited from earlier work.
The subject of a further data set is Listeria monocytogenes. The following applies: U.S. Pat. Nos. 5,286,506; 5,455,038; cited from earlier work.

In brackets after ≈: the same amount, converted by molar mass. Where two headings read alike, the source gives them in different places. *1 amine or outer side, *2 acyl side, *3 side chain or, on linkers, in order; H or OH if unused. Where a SMILES comes first, the peptide text is derived from it. Bridges are numbered along the chain shown (N, C = ends). [ ]: non-standard residue; d: D form. The star is where a group is joined. X1 = NC1=N[C@@H]([C@H](N[*:1])C(=O)[*:2])C[C@H](O)N1; ΔAla(Z-3-ureido) = NC(=O)N/C=C(\N)C(=O)O; β3hOrn = NCCC[C@H](N)CC(=O)*; Dap = NC[C@H](N)C(=O)O

As for `CC1(C)S[C@@H]2[C@H](NC(=O)[C@H](N)c3ccccc3)C(=O)N2[C@H]1C(=O)O` [Amp, Ampicillin], the antibiotic sensitivity result was “R (R > 8 μg/ml)” in data set [1] (patient A, R > 8 μg/ml); “R (R > 8 μg/ml)” in [1] (patient B, R > 8 μg/ml); “R (R > 8 μg/ml)” in data set [1] (patient C, R > 8 μg/ml); “R (R > 8 μg/ml)” in [2] (patient F, R > 8 μg/ml).

With `CC(=O)OCC1=C(C(=O)O)N2C(=O)[C@@H](NC(=O)Cc3cccs3)[C@H]2SC1` [Ceph, Cephalothin], the antibiotic sensitivity entry in [3] (R > 32 μg/ml) was “R (R > 32 μg/ml)”; in data set [2] (patient D, R > 32 μg/ml), “R (R > 32 μg/ml)”; in [2] (patient E, R > 32 μg/ml) it was “R (R > 32 μg/ml)”.

On to `O=C(N[C@H](CO)[C@H](O)c1ccc([N+](=O)[O-])cc1)C(Cl)Cl` [Chlor, Chloramphenicol], for which the antibiotic sensitivity result in [1] (patient A, threshold not given) was “S”; in data set [1] (patient B, threshold not given) it was “S”; in data set [1] (patient C, threshold not given), “S”.

Regarding `O=C(O)c1cn(C2CC2)c2cc(N3CCNCC3)c(F)cc2c1=O` [Cipro, Ciprofloxacin], the antibiotic sensitivity result in [3] (R > 2 μg/ml) is reported as “R (R > 2 μg/ml)”; in data set [1] (patient A, R > 2 μg/ml) it was “R (R > 2 μg/ml)”; in [1] (patient B, R > 2 μg/ml), “R (R > 2 μg/ml)”; in data set [1] (patient C, R > 2 μg/ml), “R (R > 2 μg/ml)”; in data set [2] (patient D, R > 2 μg/ml) it was “R (R > 2 μg/ml)”; in data set [2] (patient E, R > 2 μg/ml) it was “R (R > 2 μg/ml)”. Besides, in data set [2] (patient F, R > 2 μg/ml), the antibiotic sensitivity entry is “R (R > 2 μg/ml)”.

As for `CCC[C@@H]1C[C@@H](C(=O)N[C@@H]([C@H]2O[C@H](SC)[C@H](O)[C@@H](O)[C@H]2O)[C@H](C)Cl)N(C)C1` [Clin, Clindamycin], the antibiotic sensitivity entry in data set [3] (R > 8 μg/ml) is recorded as “R (R > 8 μg/ml)”; in [2] (patient D, R > 8 μg/ml) it was “R (R > 8 μg/ml)”; in data set [2] (patient E, R > 8 μg/ml) it was “R (R > 8 μg/ml)”.

In the case of `CC(C)=CCC1=C(O)C(C(=O)C(C)C)=C(O)C(CC=C(C)C)(CC=C(C)C)C1=O` [Colupulone], the “activity against resistant CEM cells” value in [4] was “active”. In the data set on CEM leukemia cells, the “activity against CEM leukemia cells” value is “active”. For the same molecule, in the data set on Hela cells, the “activity against Hela cells” value was “active against Hela cells”.

Consider `N[C@@H]1CON=C1O` [Cycloserine], for which the MIC in the data set with TB was 147 to 195 µM.

For `CC[C@H]1OC(=O)[C@H](C)[C@@H](O[C@H]2C[C@@](C)(OC)[C@@H](O)[C@H](C)O2)[C@H](C)[C@@H](O[C@@H]2O[C@H](C)C[C@H](N(C)C)[C@H]2O)[C@](C)(O)C[C@@H](C)C(=O)[C@H](C)[C@@H](O)[C@]1(C)O` [Eryth, Erythromycin], the antibiotic sensitivity result in data set [3] (R > 8 μg/ml) is “R (R > 8 μg/ml)”; in data set [2] (patient D, R > 8 μg/ml) it was “R (R > 8 μg/ml)”; in data set [2] (patient E, R > 8 μg/ml), “R (R > 8 μg/ml)”.

For `CC[C@@H](CO)NCCN[C@@H](CC)CO` [Ethambutol], the MIC in the data set with TB is 5 to 25 µM.

Consider `CCc1cc(C(N)=S)ccn1` [Ethionamide], for which the MIC in the data set on TB was 15 µM (≈ 2.49 µg/mL).

For `NNC(=O)c1ccncc1` [Isoniazid], in the data set on TB, the minimal inhibitory concentration (MIC) is 1.5 µM (≈ 0.206 µg/mL).

As for `Cc1onc(-c2ccccc2)c1C(=O)N[C@@H]1C(=O)N2[C@@H]1SC(C)(C)[C@@H]2C(=O)O` [Oxa, Oxacillin], the antibiotic sensitivity result was “R (R > 8 μg/ml)” in data set [3] (R > 8 μg/ml); “R (R > 8 μg/ml)” in [2] (patient D, R > 8 μg/ml); “R (R > 8 μg/ml)” in [2] (patient E, R > 8 μg/ml).

Regarding `NC(=O)c1cnccn1` [Pyrazinamide], the minimal inhibitory concentration (MIC) in the data set on TB is 122 µM (≈ 15 µg/mL).

Turning to `CO[C@H]1/C=C/O[C@@]2(C)Oc3c(C)c(O)c4c(O)c(c(/C=N/N5CCN(C)CC5)c(O)c4c3C2=O)NC(=O)/C(C)=C\C=C\[C@H](C)[C@H](O)[C@@H](C)[C@@H](O)[C@@H](C)[C@H](OC(C)=O)[C@@H]1C` [Rif, Rifampin], the antibiotic sensitivity result in data set [1] (patient B, threshold not given) is given as “S”; in [2] (patient F, threshold not given) it was “S”.

`[H]/N=C(/N)N[C@H]1[C@H](O)[C@@H](O)[C@H](O[C@@H]2O[C@@H](C)[C@](O)(C=O)[C@H]2O[C@@H]2O[C@@H](CO)[C@H](O)[C@@H](O)[C@@H]2NC)[C@@H](N/C(N)=N\[H])[C@@H]1O` [Strep, Streptomycin]: the antibiotic sensitivity result in data set [1] (patient B, R > 2000 μg/ml) is “R (R > 2000 μg/ml)”. For the same molecule, in the data set with TB, the MIC is 1.8 to 17 µM.

For the molecule `CN(C)[C@@H]1C(=O)C(C(N)=O)=C(O)[C@@]2(O)C(=O)C3=C(O)c4c(O)cccc4[C@@](C)(O)[C@H]3C[C@@H]12` [Tetra, Tetracycline], the antibiotic sensitivity entry in data set [1] (patient A, threshold not given) is reported as “S”; in data set [1] (patient B, threshold not given), “S”.

In the case of `CN[C@H](CC(C)C)C(=O)N[C@H]1C(=O)N[C@@H](CC(N)=O)C(=O)N[C@H]2C(=O)N[C@H]3C(=O)N[C@H](C(=O)N[C@H](C(=O)O)c4cc(O)cc(O)c4-c4cc3ccc4O)[C@H](O)c3ccc(c(Cl)c3)Oc3cc2cc(c3O[C@@H]2O[C@H](CO)[C@@H](O)[C@H](O)[C@H]2O[C@H]2C[C@](C)(N)[C@H](O)[C@H](C)O2)Oc2ccc(cc2Cl)[C@H]1O` [Vanco, Vancomycin], the antibiotic sensitivity entry in [3] (R > 16 μg/ml) is “S”; in [1] (patient A, R > 16 μg/ml) it was “R (R > 16 μg/ml)”; in data set [1] (patient B, R > 16 μg/ml), “R (R > 16 μg/ml)”; in data set [1] (patient C, R > 16 μg/ml), “S”; in data set [2] (patient D, R > 16 μg/ml), “S”; in data set [2] (patient E, R > 16 μg/ml) it was “S”.

Turning to `NCCC[C@H](N)CC(=O)N[C@H]1CNC(=O)[C@H]([C@H]2C[C@H](O)NC(N)=N2)NC(=O)/C(=C/NC(N)=O)NC(=O)[C@H](CO)NC(=O)[C@H](CO)NC1=O` [Viomycin] (β3hOrn-[Dap]SS[ΔAla(Z-3-ureido)][X1]; lactam 1-C), the minimal inhibitory concentration (MIC) in the data set on TB was 1.5 to 15 µM.

For `CC(C)CCC1=C(O)C(C(=O)CC(C)C)=C(O)C(CCC(C)C)(CCC(C)C)C1=O` [hexahydrolupulone], the “growth inhibition of certain Lactobacilli” value with Lactobacilli is listed as “inhibits the growth of certain Lactobacilli”. Moreover, the “stability relative to non-hydrogenated parent” value in data set [5] was “more stable than lupulone”.

For the molecule `CC(C)CCC(=O)C1(O)C(O)=C(C(=O)CC(C)C)C(=O)C1CCC(C)C` (stereo not shown) [tetrahydroisohumulone, reference compound], the “growth inhibition of food pathogens” value in the data set with Listeria monocytogenes is on record as “can inhibit the growth of food pathogens, such as Listeria monocytogenes”.

On to Gentamicin, for which the antibiotic sensitivity entry in data set [1] (patient B, threshold not given) is reported as “S”.

On to Peniciliin, for which the antibiotic sensitivity result was “R (R > 8 μg/ml)” in data set [3] (R > 8 μg/ml); “R (R > 8 μg/ml)” in data set [1] (patient A, R > 8 μg/ml); “R (R > 8 μg/ml)” in data set [1] (patient B, R > 8 μg/ml); “R (R > 8 μg/ml)” in data set [1] (patient C, R > 8 μg/ml); “R (R > 8 μg/ml)” in [2] (patient D, R > 8 μg/ml); “R (R > 8 μg/ml)” in [2] (patient E, R > 8 μg/ml). In addition, the antibiotic sensitivity entry in [2] (patient F, R > 8 μg/ml) is given as “R (R > 8 μg/ml)”.

Broadly, the MIC is the smallest concentration in the dilution series that meets the test's criterion for growth inhibition.
